Measurements: patent US20100273876A1, “ANTIBACTERIAL FORMULATION COMPRISING A DIALKYL SULPHOSUCCINATE AND A CARBANILIDE ANTIBACTERIAL AGENT” (priority 2007, published 2010)

Columns and labels:
[1] = tested on: Por. gingivalis 381; test: Biofilm disruption assay on hydroxyapatite discs; type: cell-based, Porphyromonas gingivalis; details: Por. gingivalis 381 biofilm, DOSS 0.5% (w/v), CHX 0.2% (w/v)
Procedure: (§1) This assay was designed to determine quantitatively the relative potency of a test compound to disrupt (effectively kill) biofilms formed by a test organism on hydroxyapatite (HA) discs.
(§2) Biofilms were formed on sterile dense ceramic HA discs 7 mm diameter x 1.8 mm thick (Clarkson Chromatography) by placing the discs in the appropriate liquid media (as described above) inoculated with the test organism (0.5×10^8 cfu/ml). The HA discs were then incubated at 37° C. for ˜48 h in a 5% CO2 atmosphere (for Strep. mutans ATCC 25175) or ˜96 h under anaerobic conditions (for Por. gingivalis 381). Following the incubation period the supernatant was removed from the wells containing the HA discs and the discs were washed×3 with fresh media to ensure all planktonic cells were removed. The HA discs were then transferred to sterile bijoux bottles containing 1 ml of phosphate buffered saline (PBS) plus test compound(s) at the required concentration. After a set time period (usually 2 and/or 5 min), the HA disc was transferred to another sterile bijoux containing 1 ml of fresh growth media. Adherent cells were then harvested by vigorous vortexing for 2 minutes. A sample was then taken, serially diluted 10-fold in fresh growth media and inoculated onto agar plates in triplicate. Untreated HA discs, and HA discs added to PBS containing only the solvents used to dissolve the test compound(s), acted as controls.
(§3) The plates were then incubated as described above and subsequently examined visually for growth. Colonies were counted at an appropriate serial dilution (5-50 individual colonies visible) with the aid of a colony counter. These measurements were then converted to numbers of colony forming units (cfu), using the formula: cfu/ml=number of colonies×serial dilution factor×100 (as only a 10 μl sample was taken).
(§4) These cfu values were then converted into log10 values and plotted graphically against time of sample removal.
(§5) At each time point, samples were assessed in triplicate; the final cfu/ml value was an average (mean) of the three readings.
(§6) Biofilm disruption assays, as described above, were carried out using DOSS as the test compound and chlorhexidine (CHX) as a positive control. For these experiments, the DOSS was tested at 0.5% w/v against Por. gingivalis and 1% w/v against Strep. mutans. The ahlorhexidine was tested at a concentration of 0.2% w/v against both micro-organisms. The DOSS was dissolved in ethanol and the chlorhexidine in distilled water. All the experiments were conducted in triplicate.

[2] = tested on: P. acnes PRP-007; test: Agar dilution MIC assay; type: cell-based, Propionibacterium acnes; details: P. acnes PRP-007 (Clin)
Procedure: The propionibacteria were cultured and maintained on Wilkins-Chalgren Anaerobe Medium (agar and broth) at pH 6.0; all cultures were incubated anaerobically at 37° C. for 72 hours.
This is a standard international method for quantitatively assessing the antimicrobial activity of a compound in a solid medium. The test compound was prepared to 40× the highest concentration required (eg, 10 mg/ml for a final concentration of 250 μg/ml) and a series of doubling dilutions were performed in a suitable solvent. A set amount of these antimicrobial stock solutions was then added to molten agar medium (ca. 55° C.), mixed thoroughly, poured into sterile Petri dishes and allowed to cool/set.
A Multipoint™ Inoculator (AQS Manufacturing Ltd, UK) was used to inoculate the plates by spotting the inocula onto the surface of the agar, delivering approximately 1 to 2 μl per spot (yielding 10^5 CFU(colony forming units) per spot).
The plate(s) were then incubated under the conditions described above, following which they were examined visually for signs of bacterial growth. The MIC value was ascertained when there was a marked reduction in, or total loss of, growth on the test plate at the lowest concentration as compared to that of the growth on the control plate.
The assays were conducted in duplicate and included a positive control (culture medium, diluting solvent and inoculum).

[3] = tested on: Por. gingivalis NCTC 11834; test: MBC assay; type: cell-based, Porphyromonas gingivalis
Procedure: (§7) The P. gingivalis strains were cultured and maintained on Wilkins-Chalgren Anaerobe Medium (agar and broth) at pH 7.0; all cultures were incubated anaerobically at 37° C. for 5-7 days. This assay, normally carried out after an MIC assay, determines the rnininiurn concentration of a compound that is lethal to the micro-organism being tested. […] These samples were then individually sub-cultured on antibiotic-free agar medium, under the incubation conditions described above. Following incubation they were examined visually for microbial growth.

[4] = tested on: Strep. mutans ATCC 25175; test: MBC assay; type: cell-based, Streptococcus mutans
Procedure: as §7, with “S. mutans was” for “P. gingivalis strains were”, “7.0 supplemented with 1 g/L glucose;” for “7.0;”, “incubated” for “incubated anaerobically”, “48 h in an atmosphere containing 5% CO2.” for “5-7 days.”

[5] = tested on: Strep. mutans ATCC 25175; test: Biofilm disruption assay on hydroxyapatite discs; type: cell-based, Streptococcus mutans; details: Strep. mutans ATCC 25175 biofilm, DOSS 1.0% (w/v), CHX 0.2% (w/v)
Procedure: as §1, §2, §3, §4, §5, §6

[6] = tested on: C. striatum NCTC 764; test: MBC assay; type: cell-based, Corynebacterium striatum
Procedure: Several Corynebacterium test species were also used in this study, namely C. mucifaciens ATCC 700355, C. striatum NCTC 764, C. xerosis NCTC 11861 and C. jeikeium NCTC 11915. These Gram-positive pathogens are closely related to organisms (aerobic diphtheroids of the genus Corynebacterium) that cause body odour. C. mucifaciens and C. striatum were cultured and maintained on Mueller-Hinton Medium (agar and broth) and were incubated aerobically at 37° C. for 24 hours. C. xerosis and C. jeikeium were cultured and maintained on Mueller-Hinton Medium containing 5% (v/v) lysed horse blood (agar and broth) and were incubated aerobically at 37° C. for 72 hours. This assay, normally carried out after an MIC assay, determines the rnininiurn concentration of a compound that is lethal to the micro-organism being tested. […] These samples were then individually sub-cultured on antibiotic-free agar medium, under the incubation conditions described above. Following incubation they were examined visually for microbial growth.

Substance: dioctyl sodium sulphosuccinate [DOSS]
- Viable cell counts ([1]; 0 min): 7.53 log10 cfu/ml
- Viable cell counts ([1]; 2 min): 5.08 log10 cfu/ml
- Viable cell counts ([1]; 5 min): 3.34 log10 cfu/ml
- MIC [2]: 15.6 mg/L
- MBC [3]: <0.49 mg/L
- MBC [4]: 15.6 mg/L
- MIC/MBC ratio [4]: 1
- Viable cell counts ([5]; 0 min): 6.56 log10 cfu/ml
- Viable cell counts ([5]; 2 min): 2.87 log10 cfu/ml
- Viable cell counts ([5]; 5 min): 3.36 log10 cfu/ml
- MBC [6]: 62.5 mg/L
- MIC/MBC ratio [6]: 1
